Laboratory results published in US7318924B2, “Antibodies against cancer” (The Austin Research Institute, priority 2001, dated 2008).
≈ marks a conversion by molar mass, not a printed value.

How the values were obtained:
[1] = tested on: mouse thyoma E3 cells; assay: Growth of mouse thymoma E3 cells; format: cell-based; details: read-out: Ic50 concentration
Text: (§1) Therefore, C4 can overcome drug resistance which is a common problem in acute leukemia.

[2] = tested on: CEM/A7; assay: Growth of leukaemia cell line CEM/A7; format: cell-based, human
Text: as §1

[3] = tested on: CEM/A7R; assay: Growth of drug resistant leukaemia cell line CEM/A7R; format: cell-based, human
Text: Thus, this cell line is normally resistant to a variety of naturally derived chemotherapeutic agents.
as §1

[4] = tested on: p38; assay: p38 activation in LS174T cells; format: cell-based, human; details: 3 hours; C3 5, 10 μg/ml; Cisplatin 25, 50 μg/ml
Description: (§2) P38 was not affected by C3 but was activated by Cisplatin.
The stress related p38 pathway was also investigated in LS174T cells following anti-Cripto-1 Mab treatment. p38 activation occurred following 48 hours of Mab exposure, when the level of activated JNK declined. p38 was further activated at 72 hours when elevated JNK returned to basal level (FIG. 8D). […] The potentiation of Cisplatin cytotoxicity by anti-Cripto-1 Mabs (FIG. 1) is accompanied by an increase in JNK phosphorylation (FIG. 8A) and p38 MAPK (FIG. 8B).

[5] = tested on: JNK/SAPK; assay: JNK activation in LS174T cells; format: cell-based, human; details: 3 hours; C3 5, 10 μg/ml; Cisplatin 25, 50 μg/ml
Description: as §2
The role of JNK and p38 activation in anti-Cripto-1 mediated apoptosis was investigated in colon cancer LS17T cell line using different concentration of Mabs and various times of incubation. In particular, JNK/SPAK was activated in LS174T cells following 3 hours incubation with anti-Cripto-1 Mab in a dose dependent manner (FIG. 8A). JNK activation was at the highest level after 24 hours of exposure (FIGS. 8B and 8D), and declined within 48 h, returning to basal level at 72 hours of incubation (FIG. 8D) indicating JNK activation by anti-Cripto1 antibodies is time dependent

| IC50 [1] [µg/mL] | SMILES | resistance to Epirubicin compared to E3 [2] | resistance to Epirubicin compared to E3 [3] [fold] | p38 activation [4] | JNK activation [5] |
| --- | --- | --- | --- | --- | --- |
| 0.02 (≈ 0.0368 µM) | COc1cccc2c1C(=O)c1c(O)c3c(c(O)c1C2=O)C[C@@](O)(C(=O)CO)C[C@@H]3O[C@H]1C[C@H](N)[C@@H](O)[C@H](C)O1 [Epirubicin] | around 80 fold | ~40 | – | – |
| – | N.N.[Cl][Pt][Cl] [Cisplatin] | – | – | activated | induced |
